Results from ChEMBL document CHEMBL2086258, “Laxiflorolides A and B, epimeric bishomoditerpene lactones from Isodon eriocalyx” (J Nat Prod, 2012).

Experiments:
Assay type in all cases: functional, cell-based
MCF7 = assay: Cytotoxicity against human MCF7 cells after 48 hrs by MTT assay; details: MCF7, 48 h
A549 = assay: Cytotoxicity against human A549 cells after 48 hrs by MTT assay; details: A549, 48 h
SMMC-7721 = assay: Cytotoxicity against human SMMC7721 cells after 48 hrs by MTT assay; details: SMMC-7721, 48 h
HL-60 = assay: Cytotoxicity against human HL60 cells after 48 hrs by MTT assay; details: HL-60, 48 h
SW480 = assay: Cytotoxicity against human SW480 cells after 48 hrs by MTT assay; details: SW480, 48 h

Row | SMILES | IC50 (MCF7; read-out: IC50) [µM] | IC50 (MCF7; read-out: pIC50 (converted)) [µM] | IC50 (A549; read-out: IC50) [µM] | IC50 (A549; read-out: pIC50 (converted)) [µM] | IC50 (SMMC-7721; read-out: IC50) [µM] | IC50 (SMMC-7721; read-out: pIC50 (converted)) [µM] | IC50 (HL-60; read-out: IC50) [µM] | IC50 (HL-60; read-out: pIC50 (converted)) [µM] | IC50 (SW480; read-out: IC50) [µM] | IC50 (SW480; read-out: pIC50 (converted)) [µM]
1 | C=C1[C@@H]2CC[C@H]3[C@]45CO[C@H](CC4=O)C(C)(C)C5=C(O)C(=O)[C@]3(C2)[C@@H]1O (relative stereo) | 12.9 | 12.6 | 24.9 | 25.1 | 21.5 | 20 | 9.9 | 9.9 | 15.4 | 15.8
2 | C=C1C(=O)[C@]23C[C@H]1CC[C@H]2[C@@]12CO[C@]3(O)[C@@H](O)[C@@H]1C(C)(C)C=CC2=O [ERIOCALYXIN B] | 0.6 | 0.631 | 3.1 | 3.16 | 0.8 | 0.794 | 0.3 | 0.316 | 0.5 | 0.501
3 | C=C(C=O)[C@@H]1CC[C@@H]2[C@@H](C1)C(=O)[C@@H](O)[C@@H]1C(C)(C)[C@H]3CC(=O)[C@@]21CO3 [LAXIFLORIN P] | 3.2 | 3.16 | 11.7 | 12.6 | 5.6 | 5.01 | 3.8 | 3.98 | 3.1 | 3.16
4 | CC1(C)[C@H]2[C@H](O)C(=O)[C@@H]3C[C@H](C(=O)O)CC[C@H]3[C@@]23CO[C@@H]1CC3=O [LAXIFLORIN Q] | > 40 | > 39.8 | > 40 | > 39.8 | > 40 | > 39.8 | > 40 | > 39.8 | > 40 | > 39.8
5 | C[C@H]1C[C@](O)([C@@H]2CC[C@@H]3[C@@H](C2)C(=O)[C@@H](O)[C@@H]2C(C)(C)[C@H]4CC(=O)[C@@]32CO4)C(=O)O1 [LAXIFLOROLIDE A] | > 40 | > 39.8 | > 40 | > 39.8 | > 40 | > 39.8 | > 40 | > 39.8 | > 40 | > 39.8
6 | C[C@@H]1C[C@](O)([C@@H]2CC[C@@H]3[C@@H](C2)C(=O)[C@@H](O)[C@@H]2C(C)(C)[C@H]4CC(=O)[C@@]32CO4)C(=O)O1 [LAXIFLOROLIDE B] | > 40 | > 39.8 | > 40 | > 39.8 | > 40 | > 39.8 | > 40 | > 39.8 | > 40 | > 39.8
7 | C=C1[C@@H]2CC[C@H]3[C@@]45CO[C@](O)([C@@H](O)[C@@H]4C(C)(C)C=CC5=O)[C@]3(C2)[C@@H]1O [MAOECRYSTAL C] | 14.4 | 15.8 | > 40 | > 39.8 | > 40 | > 39.8 | 18.9 | 20 | 14.5 | 15.8
8 | C=C1C(=O)[C@]23C[C@H]1CC[C@H]2[C@]12CO[C@H](CC1=O)C(C)(C)C2=C(O)C3=O [MAOECRYSTAL P] | 1.8 | 2 | 6.3 | 6.31 | 2.8 | 2.51 | 1 | 1 | 2.1 | 2
